In the NIST ThermoML archive (doi:10.1016/j.tca.2011.10.030):
Numbers after ± are expanded uncertainties.

Columns and labels:
[1] = 101 kPa, Liquid; for viscosity: Capillary tube (Ostwald / Ubbelohde) method; for mass density: Vibrating tube method
[2] = xn = mol fraction of the nth substance listed; settings: 101 kPa, Liquid, x2 = 0; for viscosity: Capillary tube (Ostwald / Ubbelohde) method; for mass density: Vibrating tube method

Structure (SMILES) | viscosity ([1]; 293.15 K) [mPa·s] | mass density ([1]; 293.15 K) [kg/m3] | viscosity ([1]; 303.15 K) [mPa·s] | mass density ([1]; 303.15 K) [kg/m3] | viscosity ([1]; 313.15 K) [mPa·s] | mass density ([1]; 313.15 K) [kg/m3] | viscosity ([1]; 323.15 K) [mPa·s] | mass density ([1]; 323.15 K) [kg/m3] | viscosity ([1]; 333.15 K) [mPa·s] | mass density ([1]; 333.15 K) [kg/m3] | viscosity ([2]; 293.15 K) [mPa·s] | mass density ([2]; 293.15 K) [kg/m3] | viscosity ([2]; 303.15 K) [mPa·s] | mass density ([2]; 303.15 K) [kg/m3] | viscosity ([2]; 313.15 K) [mPa·s] | mass density ([2]; 313.15 K) [kg/m3] | viscosity ([2]; 323.15 K) [mPa·s] | mass density ([2]; 323.15 K) [kg/m3] | viscosity ([2]; 333.15 K) [mPa·s] | mass density ([2]; 333.15 K) [kg/m3]
CCCCCCn1cc[n+](C)c1.F[B-](F)(F)F [1-hexyl-3-methylimidazolium tetrafluoroborate] | 232.65 | 1149.24 ± 5.1 | 130.02 | 1142.48 ± 5.1 | 78.24 | 1135.79 ± 5.1 | 50.3 | 1129.08 ± 5.1 | 34.02 | 1122.37 ± 5.1 |  |  |  |  |  |  |  |  |  | 
CCCO [propan-1-ol] | 2.204 ± 0.02 | 809.62 ± 5 | 1.615 ± 0.015 | 801.43 ± 5 | 1.188 ± 0.011 | 793.09 ± 5 | 0.8796 ± 0.0084 | 784.54 ± 5 |  | 775.74 ± 5 |  |  |  |  |  |  |  |  |  | 
CCCO [propan-1-ol] + CCCCCCn1cc[n+](C)c1.F[B-](F)(F)F |  |  |  |  |  |  |  |  |  |  | 2.204 ± 0.02 | 809.62 ± 5 | 1.615 ± 0.015 | 801.43 ± 5 | 1.188 ± 0.011 | 793.09 ± 5 | 0.8796 ± 0.0084 | 784.54 ± 5 | 0.5985 ± 0.006 | 775.74 ± 5
